What was measured:
[1] = at the end of 80 days; cited from earlier work
[2] = cited from earlier work
[3] = mice on a 10% sucrose diet; cited from earlier work
[3H]-5-HT uptake = isolated rat brain cortical slices; cited from earlier work
[4] = Blood glucose after HCA meal replacement releasing only in the small intestine; format: in vivo, human
Source text: In Example 1, the HCA was delivered in an immediate-release preparation. Our unexpected findings with regard to blood sugar led to the hypothesis that a relatively large dose of HCA might affect blood sugar levels in an individual whose blood sugar is in the low normal range. A dose of 1.5 grams HCA derived from potassium HCA and delivered in a special coated form designed to bypass interaction with stomach acids and to release only in the higher pH of the small intestine was used. A potassium HCA salt granulate was prepared according to Example 1 found in U.S. Pat. No. 6,447,807 and delivered via a dry powdered meal replacement designed to be mixed with liquid to provide 1.5 grams of HCA per 350 calories plain (mixed with water) or approximately 500 calories with milk. […] The subject ate a 500 calorie breakfast consisting the experimental HCA meal replacement. Two hours after this meal, subject's blood glucose level had dropped to 77 mg/dL. […] This finding seemed paradoxical in that the outstanding metabolic effect, which might be thought to indicate blood levels of the drug, was not matched by even a normal level of feelings of fullness. This implied that at least part of the satiation induced by HCA comes about prior to entry of the compound into the blood. […]

[5] = Multi-week pilot open clinical weight loss trial with extremely obese patients; format: in vivo, human
Source text: In the present studies, data on human usage emerged from a multi-week pilot open clinical weight loss trial with extremely obese patients which was undertaken to gauge the effects of a pouch delivery form of a potassium salt of HCA under the normal circumstances faced in clinical practice with this patient population. Sixteen patients were enrolled, three of whom were diabetics on medications and several others who were suspected of suffering from insulin resistance. The patients ingested 3-4 grams of HCA (in the form of the potassium salt) per day in two divided doses. Aside from being informed that they must eat a carbohydrate-containing meal within one hour of taking the HCA and that they should avoid eating late in the day, they were not instructed to follow any special diet or exercise plan outside their normal habits and no caloric restriction was imposed. This particular form of potassium HCA delivery typically was mixed into water or juice and consumed at mid-morning and mid-afternoon. The delivery was a water-soluble immediate release form. It was a pre-commercial preparation and nearly all of the patients complained regarding the inconvenience and poor taste of the product, albeit there were no other issues of tolerability.
A number of patients continued on the program for 6 weeks. However, most patient data was good for only 3 weeks because two of the diagnosed diabetics experienced severe hypoglycemic reactions. […] Two patients subsequently were placed on phentermine. […] The average weight loss over the 3 week period for these 14 patients was approximately 3.1 pounds per person per week. […] At therapeutically effective dosages, HCA probably should be used with diabetic populations only under a physician's care.

[6] = Immediacy of HCA-induced satiety, lemonade-like drinks prior to a meal; format: in vivo, human; details: 5 individuals, approximately 2 grams in sweetened lemonade-like drinks, 16-24 ounces, about 200 calories
Protocol: To test this theory, and the palatability of an HCA salt when mixed with various flavors, a study was conducted in which 5 individuals consumed approximately 2 grams potassium HCA mixed in sweetened lemonade-like drinks prior to a meal. Consumption of the drinks took place over the course of approximately one half hour and involved 16-24 ounces of fluid, but only about 200 calories.

[7] = Capsaicin-HCA interaction satiety test; format: in vivo, human; details: 5 individuals, approximately 2 grams in water about an hour before a meal; before red pepper sauce
Source text: The meal itself began with a soup course. […] At this point, bottles of red pepper sauce were supplied and the sauce was applied liberally. […] As is true of Example 3, this provides indirect evidence that HCA acts upon a CCK-related mechanism in inducing satiety.

## O=C(O)CC(O)(C(=O)O)C(O)C(=O)O (single isomer, unassigned; (-)) [HCA, (−)-hydroxycitric acid]
[1]
  Net reduction in food intake compared with controls: 4%
  Reduction in weight gain: 78%
[2]; experimental animals fed a high-sugar diet, single large oral dose or two divided oral doses
  Reduction in food consumption: ≥ 10%
[2]; oral, once per day
  Minimum effective dose, once per day: 2.63 mmol/kg
[2]; oral, twice per day
  Minimum effective dose, twice per day: 0.33 mmol/kg
[3]
  Leptin/white adipose tissue ratio compared with control: lower
  Serum insulin compared with control: lower
  Serum leptin compared with control: lower
[3H]-5-HT uptake
  [3H]-5-HT uptake: inhibit

## O=C([O-])CC(O)(C(=O)[O-])C(O)C(=O)[O-].[K+].[K+].[K+] (stereo not drawn) [potassium HCA]
[4]; delivery to the small intestine, by-passing the stomach
  Anorectic action / feelings of fullness: blunt the anorectic actions
[4]; two hours after 500 calorie meal with 1.5 grams HCA, coated form released in small intestine, fasting level before 85 mg/dL, one subject
  Blood glucose level: 77 mg/dL
[5]; 3 week period, 14 patients, 3-4 grams HCA per day in two divided doses, immediate release pouch form
  Average weight loss: approximately 3.1 pounds per person per week
[5]; eight patients with hypertension
  Blood pressure: normalize blood pressure
[5]; immediate release format, two diagnosed diabetics had severe hypoglycemic reactions
  Effect on blood sugar in diabetics: strong hypoglycemic effect
[5]; over 10 weeks
  Weight loss of one patient: 32 pounds
[5]; several patients
  Appetite suppression: good appetite suppression
[6]
  Satiety: satiated soon after the meal began
[7]
  Feeling of fullness: felt full very soon

From patent US20060228412A1, “(-)-Hydroxycitric acid for delaying gastric emptying” (priority 2003, published 2006)
